Substitutions are numbered along the chain they refer to.
Assays:
[1] = molecular target: T1, CfamOBP2 (Canis lupus familiaris, UniProt O18874); assay: Fluorescence competitive binding assay (NPN displacement); conditions: 2 μM OBP, 4 μM NPN, 20° C., pH 7.5, odorant 0.5-20 μM
T1 construct: His tag (from pQE31 vector) (N); made in house; host or cells: E. coli M15 (plasmid pQE31)
T1 sequence (O18874 19-180): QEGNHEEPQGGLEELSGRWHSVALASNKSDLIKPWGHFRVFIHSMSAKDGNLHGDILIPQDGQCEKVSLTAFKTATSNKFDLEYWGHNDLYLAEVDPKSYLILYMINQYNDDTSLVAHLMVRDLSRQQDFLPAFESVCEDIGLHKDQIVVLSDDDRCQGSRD
Method: (§1) Binding experiments were performed at 20° C. on a spectrofluorometer (Cary-Eclipse (Agilent, USA)) equipped with magnetic stirrers and a Peltier control temperature unit. The fluorescent probes: 1-N-phenylnaphthylamine (NPN) (Sigma, USA), 8-anilinonaphthalene-1-sulfonic acid (1,8-ANS) (Sigma, USA), and SYPRO™ orange (ThermoFischer, France) were excited at 337 nm, 372 nm and 490 nm respectively. Emission spectra were recorded between 350 and 500 nm for NPN; 400 and 600 nm for 1,8-ANS and 510 and 700 nm for SYPRO orange. Fluorescent probe binding experiments were performed in a 2 mL cuvette of 1 cm path length containing 2 μM OBPs in 50 mM potassium phosphate buffer at pH 7.5. The fluorescent probes were prepared in 100% MeOH at 0.1, 1, 10 and 100 mM. The concentration of the different fluorescent probes was increased into the 1 mL solution containing CfamOBPs until the adding allow to reach a fluorescence maximum of emission intensity. The binding curves were then traced using SigmaPlot 12.5 software.
(§2) Ligand competitive binding experiments were performed in cuvettes containing 2 μM OBPs, 10 μM fluorescent probe for CfamOBP1 and its variant (Seq ID No 14) and CfamOBP3, 4 μM fluorescent probe for CfamOBP2 and its variant (Seq ID No 15) and 1.25× fluorescent probe for CfamOBP4, in 50 mM potassium phosphate buffer at pH 7.5.
(§3) Odorants were prepared in 100% MeOH and aliquots were added to final concentrations of 0.5-20 μM. The experiments were performed in triplicate. The obtained data were then traced and analysed using SigmaPlot 12.5 software.

[2] = molecular target: T2, CfamOBP2-K83 (variant of Seq ID No 15) (Canis lupus familiaris, UniProt O18874, E83K); assay: as above; conditions: 2 μM OBP, 4 μM NPN, 20° C., pH 7.5, odorant 0.5-20 μM
T2 construct: His tag (from pQE31 vector) (N); made in house; host or cells: E. coli M15 (plasmid pQE31)
T2 sequence (O18874 19-180 E83K): T1 sequence (O18874 19-180) with E65K
Method: as §1, §2, §3

[3] = molecular target: T3, CfamOBP3-102Y (mutant of Seq ID No 35) (Canis lupus familiaris, UniProt H2B3G5, H102Y); assay: Isothermal titration calorimetry; assay type: binding; conditions: ITC at 25° C., 25 μM protein, 250 μM odorant, pH 7.5; mutant compared with CfamOBP3
T3 construct: His tag (MRGSHHHHHH leader of pQE31, then TDP from the BamHI site) (N); made in house; host or cells: E. coli M15 (plasmid pQE31)
T3 sequence (H2B3G5 16-190 H102Y): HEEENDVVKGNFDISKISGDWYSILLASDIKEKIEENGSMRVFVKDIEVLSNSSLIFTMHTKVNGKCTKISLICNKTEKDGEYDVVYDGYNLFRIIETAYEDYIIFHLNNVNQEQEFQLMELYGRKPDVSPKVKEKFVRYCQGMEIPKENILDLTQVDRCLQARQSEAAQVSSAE
Method: Titration experiments were carried at 25° C. using isothermal titration microcalorimeter VP-ITC system (Malvern Instruments, Malvern, UK). 100 mM odorant solution in MeOH were diluted to 250 μM into 100 mM potassium phosphate buffer, pH 7.5 and loaded into the syringe. Protein solutions were prepared at 25 μM in the phosphate buffer and degassed directly prior to experiment and injected into the measure cell. Injections of 10 μL ligand solution into the protein containing cell were performed at time intervals of 210 s with a total of 25 injections. Analysis of the experimental data was performed using the Origin 5.0 program (Malvern Instruments, Malvern, UK) and fitted by a model of one binding site. Binding parameters such as stoichiometry (n) and the association constant (KA) were determined by this fitting.

[4] = molecular target: T4, CfamOBP3 (Canis lupus familiaris, UniProt H2B3G5); assay: Fluorescence competitive binding assay (NPN displacement); conditions: 2 μM OBP, 10 μM NPN, 20° C., pH 7.5, odorant 0.5-20 μM
T4 construct: His tag (from pQE31 vector) (N); made in house; host or cells: E. coli M15 (plasmid pQE31)
T4 sequence (H2B3G5 16-190): T3 sequence (H2B3G5 16-190 H102Y) with Y87H
Method: as §1, §2, §3

[5] = molecular target: T5, CfamOBP1-L52 (variant of Seq ID No 14) (Canis lupus familiaris, UniProt O18873, S52L); assay: Fluorescence competitive binding assay (1,8-ANS displacement); conditions: 2 μM OBP, 10 μM 1,8-ANS, 20° C., pH 7.5, odorant 0.5-20 μM
T5 construct: His tag (from pQE31 vector) (N); made in house; host or cells: E. coli M15 (plasmid pQE31)
T5 sequence (O18873 19-174 S52L): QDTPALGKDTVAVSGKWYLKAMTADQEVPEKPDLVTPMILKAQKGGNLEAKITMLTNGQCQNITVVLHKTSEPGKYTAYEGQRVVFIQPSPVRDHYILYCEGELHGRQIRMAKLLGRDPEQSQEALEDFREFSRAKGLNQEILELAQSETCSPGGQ
Method: as §1, with “software. […]” for “software.”
(§4) Odorants were prepared in 100% MeOH and aliquots were added to final concentrations of 0.5-20 μM. […] The obtained data were then traced and analysed using SigmaPlot 12.5 software.

[6] = molecular target: T6, CfamOBP1 (Canis lupus familiaris, UniProt O18873); assay: as above; conditions: 2 μM OBP, 10 μM 1,8-ANS, 20° C., pH 7.5, odorant 0.5-20 μM
T6 construct: His tag (from pQE31 vector) (N); made in house; host or cells: E. coli M15 (plasmid pQE31)
T6 sequence (O18873 19-174): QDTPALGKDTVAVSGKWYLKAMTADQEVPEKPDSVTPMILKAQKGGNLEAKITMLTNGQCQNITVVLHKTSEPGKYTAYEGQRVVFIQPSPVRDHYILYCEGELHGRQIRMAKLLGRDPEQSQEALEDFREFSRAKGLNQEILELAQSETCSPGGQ
Method: as §1, with “software. […]” for “software.”
as §4

## CC(C)CCCC(C)CCO (stereo not drawn) [DMO, 3,7-dimethyl-1-octanol]
[1]
  displacement of the fluorescent probe: able to displace the probes
[2]
  displacement of the fluorescent probe: able to displace the probes

## COc1nccnc1CC(C)C [IBMP, 2-isobutyl-3-methoxypyrazine]
[3]
  change of Ka value (affinity) versus CfamOBP3: eight fold increase
[4]
  displacement of the fluorescent probe: able to displace the probes

## CC(C)=CCCC(C)CC=O (stereo not drawn) [citronellal]
[5]
  displacement of the fluorescent probe: able to displace the probes
[6]
  displacement of the fluorescent probe: able to displace the probes
